Assay results: publication PMC8119466, “A screen of FDA-approved drugs identifies inhibitors of protein tyrosine phosphatase 4A3 (PTP4A3 or PRL-3)” (Scientific Reports, 2021)
Structures can show the parent of a compound that is named as a salt. Where two headings read alike, the source gives them in different places.

Tests used:
Format in all cases: biochemical
recombinant PRL-3 = target: T1, recombinant PRL-3 (Homo sapiens, UniProt O75365); assay: In vitro phosphatase assay (DiFMUP hydrolysis), PRL-3
T1 construct: 6xHis (N, cleaved yes); made in house; host or cells: E. coli One Shot BL21 Star
T1 sequence (O75365 whole entry): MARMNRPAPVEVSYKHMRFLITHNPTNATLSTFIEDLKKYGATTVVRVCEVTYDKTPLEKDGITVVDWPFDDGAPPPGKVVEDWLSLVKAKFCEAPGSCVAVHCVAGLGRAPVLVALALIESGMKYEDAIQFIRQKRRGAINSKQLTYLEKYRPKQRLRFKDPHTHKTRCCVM

recombinant PRL-2 = target: T2, recombinant PRL-2 (Homo sapiens, UniProt Q12974); assay: In vitro phosphatase assay (DiFMUP hydrolysis), PRL-2;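 also: PRL-2 activity read as DiFMUP hydrolysis after 20 min at room temperature with drug, enzyme first pre-reduced at 4 °C for 20 min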
T2 construct: 6xHis (N, cleaved yes); made in house; host or cells: E. coli One Shot BL21 Star
T2 sequence (Q12974 1-167): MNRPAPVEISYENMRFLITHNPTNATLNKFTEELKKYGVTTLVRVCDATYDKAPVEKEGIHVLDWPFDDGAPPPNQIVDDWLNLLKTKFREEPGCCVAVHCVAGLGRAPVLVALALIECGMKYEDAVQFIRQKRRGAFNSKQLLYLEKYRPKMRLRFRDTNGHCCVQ

recombinant PRL-1 = target: T3, recombinant PRL-1 (Homo sapiens, UniProt Q93096); assay: In vitro phosphatase assay (DiFMUP hydrolysis), PRL-1
T3 construct: 6xHis (N, cleaved yes); made in house; host or cells: E. coli One Shot BL21 Star
T3 sequence (Q93096 1-173): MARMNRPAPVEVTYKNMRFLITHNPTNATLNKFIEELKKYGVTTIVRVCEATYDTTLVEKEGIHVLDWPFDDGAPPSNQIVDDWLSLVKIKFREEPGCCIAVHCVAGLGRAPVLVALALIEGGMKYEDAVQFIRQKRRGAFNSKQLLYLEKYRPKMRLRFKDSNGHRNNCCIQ

[1] = FDA-approved drug screen, compared to DMSO

| Compound | % Phosphatase Activity (compared to DMSO) PRL-3 (recombinant PRL-3; [1]) | % Phosphatase Activity (compared to DMSO) PRL-2 (recombinant PRL-2; [1]) | % Phosphatase Activity (compared to DMSO) PRL-1 (recombinant PRL-1; [1]) | other results |
| --- | --- | --- | --- | --- |
| CCCC(=O)O[C@]1(C(=O)COC(C)=O)CC[C@H]2[C@@H]3C[C@H](F)C4=CC(=O)C=C[C@]4(C)[C@@]3(F)[C@@H](O)C[C@@]21C [Difluprednate] | 67% | 76% | 82% | – |
| C[C@H]1O[C@@H](O[C@H]2[C@@H](O)C[C@H](O[C@H]3[C@@H](O)C[C@H](O[C@H]4CC[C@@]5(C)[C@H](CC[C@@H]6[C@@H]5C[C@@H](O)[C@]5(C)[C@@H](C7=CC(=O)OC7)CC[C@]65O)C4)O[C@@H]3C)O[C@@H]2C)C[C@H](O)[C@@H]1O [Digoxin] | 76% | 95% | 102% | – |
| CN[C@@H]1[C@H](O[C@H]2[C@H](O[C@H]3[C@H](O)[C@@H](O)[C@H](NC(=N)N)[C@@H](O)[C@@H]3NC(=N)N)O[C@@H](C)[C@]2(O)CO)O[C@@H](CO)[C@H](O)[C@H]1O [Dihydrostreptomycin sulfate] | 110% | 90% | 89% | – |
| Oc1c(I)cc(I)c2cccnc12 [Diiodohydroxyquinoline] | 81% | 108% | 89% | – |
| COc1ccc([C@@H]2Sc3ccccc3N(CCN(C)C)C(=O)[C@@H]2OC(C)=O)cc1 [Diltiazem HCl] | 124% | 111% | 94% | – |
| O=S(=O)([O-])CCSSCCS(=O)(=O)[O-].[Na+].[Na+] [Dimesna] | 79% | 99% | 99% | – |
| COC(=O)/C=C/C(=O)OC [Dimethyl Fumarate] | 83% | 115% | 106% | – |
| CCc1cnn2c(NCc3ccc[n+]([O-])c3)cc(N3CCCC[C@H]3CCO)nc12 [Dinaciclib (SCH727965)] | – | – | – | % Phosphatase Activity (compared to DMSO) PRL-3 (recombinant PRL-3): 87%; % Phosphatase Activity (compared to DMSO) PRL-2 (recombinant PRL-2): 89%; % Phosphatase Activity (compared to DMSO) PRL-1 (recombinant PRL-1): 87% |
| Cc1c(C(N)=O)cc([N+](=O)[O-])cc1[N+](=O)[O-] [Dinitolmide] | 90% | 117% | 107% | – |
| O=C(Nc1ccccc1)OCC(CN1CCCCC1)OC(=O)Nc1ccccc1 (stereo not drawn) [Diperodon HCl] | 103% | 98% | 99% | – |
| CN(C)CCOC(c1ccccc1)c1ccccc1 [Diphenhydramine HCl] | 111% | 108% | 113% | – |
| OC(CCCN1CCCCC1)(c1ccccc1)c1ccccc1 [Diphenidol HCl] | 89% | 115% | 102% | – |
| CN1CCC(OC(c2ccccc2)c2ccccc2)CC1 [Diphenylpyraline HCl] | 98% | 100% | 97% | – |
| OCCN(CCO)c1nc(N2CCCCC2)c2nc(N(CCO)CCO)nc(N3CCCCC3)c2n1 [Dipyridamole] | 219% | 258% | 182% | – |
| CC[C@H]1OC(=O)[C@H](C)[C@@H](O[C@H]2C[C@@](C)(OC)[C@@H](O)[C@H](C)O2)[C@H](C)[C@@H](O[C@@H]2O[C@H](C)C[C@H](N(C)C)[C@H]2O)[C@](C)(O)C[C@@H](C)[C@@H]2N[C@@H](COCCOC)O[C@H]([C@H]2C)[C@]1(C)O [Dirithromycin] | 74% | 94% | 90% | – |
| O=C([O-])c1cc(=O)c2c(OCC(O)COc3cccc4oc(C(=O)[O-])cc(=O)c34)cccc2o1.[Na+].[Na+] [Disodium Cromoglycate] | 93% | 78% | 93% | – |
| CC(C)N(CCC(C(N)=O)(c1ccccc1)c1ccccn1)C(C)C (stereo not drawn) [Disopyramide Phosphate] | 93% | 107% | 94% | – |
| CCN(CC)C(=S)SSC(=S)N(CC)CC [Disulfiram] | 78% | 100% | 103% | – |
| CCCC(CCC)C(=O)O [Divalproex Sodium] | 77% | 94% | 105% | – |
| CC(=O)O[C@@]12CO[C@@H]1C[C@H](O)[C@@]1(C)C(=O)[C@H](O)C3=C(C)[C@@H](OC(=O)[C@H](O)[C@@H](NC(=O)OC(C)(C)C)c4ccccc4)C[C@@](O)([C@@H](OC(=O)c4ccccc4)[C@H]21)C3(C)C [Docetaxel Trihydrate] | 90% | 87% | 93% | – |
| CC(=O)O[C@@]12CO[C@@H]1C[C@H](O)[C@@]1(C)C(=O)[C@H](O)C3=C(C)[C@@H](OC(=O)[C@H](O)[C@@H](NC(=O)OC(C)(C)C)c4ccccc4)C[C@@](O)([C@@H](OC(=O)c4ccccc4)[C@H]21)C3(C)C [Docetaxel] | 65% | 88% | 87% | – |
| CCCCC(CC)COC(=O)CC(C(=O)OCC(CC)CCCC)S(=O)(=O)O (stereo not drawn) [Docusate Sodium, reference compound] | – | – | – | % Phosphatase Activity (compared to DMSO) PRL-3 (recombinant PRL-3): 34%; IC50 (recombinant PRL-3; 2.5 µM protein, DiFMUP at KM, read-out: Calculated IC50, PRL-3 phosphatase activity): 43 ± 5 µM; % Phosphatase Activity (compared to DMSO) PRL-2 (recombinant PRL-2): 63%; IC50 (recombinant PRL-2; 2.5 µM protein, DiFMUP at KM, read-out: Calculated IC50, PRL-2 phosphatase activity): 140 ± 44 µM; % Phosphatase Activity (compared to DMSO) PRL-1 (recombinant PRL-1): 64%; IC50 (recombinant PRL-1; 2.5 µM protein, DiFMUP at KM, read-out: Calculated IC50, PRL-1 phosphatase activity): 94 ± 26 µM |
| C[C@@H]1CCO[C@H]2Cn3cc(C(=O)NCc4ccc(F)cc4F)c(=O)c(O)c3C(=O)N12 [Dolutegravir (GSK1349572)] | 99% | 101% | 105% | – |
| CCCCCCCCCCCC[N+](C)(C)CCOc1ccccc1 [Domiphen Bromide] | 84% | 104% | 106% | – |
| O=c1[nH]c2ccccc2n1CCCN1CCC(n2c(=O)[nH]c3cc(Cl)ccc32)CC1 [Domperidone] | 79% | 112% | 118% | – |
| NCCc1ccc(O)c(O)c1 [Dopamine HCl] | – | – | – | % Phosphatase Activity (compared to DMSO) PRL-3 (recombinant PRL-3): 82%; % Phosphatase Activity (compared to DMSO) PRL-2 (recombinant PRL-2): 119%; % Phosphatase Activity (compared to DMSO) PRL-1 (recombinant PRL-1): 125% |
| C[C@@H](O)[C@H]1C(=O)N2C(C(=O)O)=C(S[C@@H]3CN[C@H](CNS(N)(=O)=O)C3)[C@H](C)[C@H]12.O [Doripenem Hydrate] | 69% | 107% | 107% | – |
